Assay results as given in EP0840781B1, “METHODS AND DEVICES FOR THE REMOVAL OF PSORALENS FROM BLOOD PRODUCTS” (Cerus Corporation, priority 1995, dated 1996).
Marks after values point to notes of the source that are not given here.

Assays:
[1] = tested on: Chinese hamster ovary (CHO) cells; assay: In vitro genotoxicity screen in CHO cells (toxic dose); type: cell-based; details: approximately 3 hours exposure in the dark, dilutions 1-1000 µg/ml
Description: The positive control was methylmethane sulfonate.
Coverslips were mounted with Permount.

[2] = tested on: GMP-140 expression on platelets; assay: GMP-140 (p-selectin) expression on platelets, CD62 antibody, flow cytometry; type: cell-based, human; details: T = test unit (150 µM S-59, 3 Joules/cm^2 UVA, RD 8 hours on day 1)
Method: (§1) To measure the effects of the present compounds and methods of decontamination on platelet function using these four indicators, four samples were prepared for each compound tested, two control samples and two containing compound. […] These were each transferred under sterile conditions to 50 ml centrifuge tubes, then aliquots of each unit were transferred into a second set of 50 ml sterile centrifuge tubes. […] The samples were pipetted gently up and down to mix. […] Samples were treated in one of two different sized bags, having either 3 ml or 8 ml capacity. […] For each compound tested, two control samples without compound were prepared by again removing aliquots of platelet concentrate (17 ml if using an 8 ml bag, 4 ml if using a 3 ml bag) from the same one of the first set of 50 ml centrifuge tubes from which the compound sample was drawn, and dividing into Medibags, as before. […]

platelet concentrate [3] = assay: Maintenance of pH of platelet concentrate; type: cell-based, human; details: T = test unit (150 µM S-59, 3 Joules/cm^2 UVA, RD 8 hours on day 1)
Method: as §1

[4] = tested on: platelets suspended in 35% plasma/65% PAS III; assay: Partitioning and distribution of S-59 in platelet concentrate before and after UVA (3H-S-59, HPLC); details: C0 = 50 µM (FIG. 25A)
Description: […] When designing a "capture" or "scrub" device for psoralen removal, an important consideration is the identification and quantification of the residual levels of low molecular weight photoproducts. Several properties of the platelet mixture (e.g., lipid content, platelet content, hemoglobin/RBC content) can affect the final partitioning of psoralen and the amount of each photoproduct that must be removed during the capture or scrub process.
Upon addition of S-59 to platelets, the S-59 rapidly partitions, establishing an equilibrium between S-59 in the plasma and S-59 within the platelets. […] In addition, higher percentages of S-59 will partition to the platelets if long incubation periods (e.g., greater than 60 minutes) occur between the addition of S-59 and illumination with UVA. The amount of S-59 which partitions to the platelets ultimately determines how much S-59 remains associated with platelets, how much is associated with plasma macromolecules, and how much remains as free photoproduct.
During the UVA illumination process, S-59 undergoes a photochemical reaction to form several low molecular weight photoproducts in addition to associating with macromolecules in both the platelet and the plasma fractions. […]
The S-59 which is not amenable to removal by the scrub/capture process can also be monitored using ^3H-labeled S-59. […]

platelets [5] = assay: ATP content / ATP secretion of platelets; type: cell-based, human; details: T = test unit (150 µM S-59, 3 Joules/cm^2 UVA, RD 8 hours on day 1)
Method: Samples were removed from the units after 24 hours and were analyzed for platelet count and pH. After 5 days, samples were taken and also analyzed for platelet count and pH, as well as ATP content and activation by GMP-140. Controls included a sample of PCD-treated PC without adsorbent (no-adsorbent control) and a sample of PC that was not treated. The results for each of the platelet function assays are present in Table G (the "*" In Table G indicates a contact time of three hours only). TABLE G
(§2) For the evaluation of in vitro platelet function, platelet samples were withdrawn from both the control and test units before treatment and after treatment on days 2, 5, and 7. The following parameters were analyzed: pH, pO2, pCO2, bicarbonate concentration, platelet count, morphology, aggregation, platelet shape change, hypotonic shock response, lactate production, glucose consumption, ATP secretion, p-selectin expression, and microvesicle formation. Several of these assays, including pH, morphology score, platelet shape change, and hypotonic shock response, have been reported in the literature to correlate with in- vivo post-transfusion recovery and survival. The Student's paired t-test was used for statistical analysis.

platelets [6] = assay: Platelet morphology score; type: cell-based, human; details: T = test unit (150 µM S-59, 3 Joules/cm^2 UVA, RD 8 hours on day 1)
Method: as §2

platelets [7] = assay: Hypotonic shock response (HSR) of platelets; type: cell-based, human; details: T = test unit (150 µM S-59, 3 Joules/cm^2 UVA, RD 8 hours on day 1)
Method: as §2

platelet concentrate [8] = assay: pO2, pCO2 and bicarbonate concentration of platelet concentrate; type: cell-based, human; details: T = test unit (150 µM S-59, 3 Joules/cm^2 UVA, RD 8 hours on day 1)
Method: In addition to the data summarized in Table E, measurements of pH, pO2, and pCO2 were taken over a five-day storage period. No significant differences between the treated and control units were observed. Finally, it should be noted that these experiments were performed with standard Amberlite™ resins (i.e., resins which were not treated by Supelco, Inc.).
as §2

platelets [9] = assay: Microvesicle formation of platelets; type: cell-based, human; details: T = test unit (150 µM S-59, 3 Joules/cm^2 UVA, RD 8 hours on day 1)
Method: as §2

SMILES: Cc1oc2c(C)c3oc(=O)cc(C)c3cc2c1CN [AMT, 4'-Aminomethyl-4,5',8-trimethylpsoralen, reference compound]
- genotoxic (toxic) dose [1]: 30 µg/mL

SMILES: Cc1oc2c(C)c3oc(=O)cc(C)c3cc2c1COCCN [Compound 2, 4'-(4-amino-2-oxa)butyl-4,5',8-trimethylpsoralen]
- (%) p-Selectin-Positive ([2]; Day 2): 49±5 %
- (%) p-Selectin-Positive ([2]; Day 5): 58±5%
- (%) p-Selectin-Positive ([2]; Day 7): 60±7%
- pH (platelet concentrate [3]; Day 2): 6.94±0.05
- pH (platelet concentrate [3]; Day 5): 6.92±0.06
- pH (platelet concentrate [3]; Day 7): 6.91±0.05
- time to S-59 equilibrium (uptake by platelets) [4]: approximately two
- ATP (platelets [5]; Day 2): 1.0±0.1 Nmoles Per 10* Platelets
- ATP (platelets [5]; Day 5): 0.7±0.2 Nmoles Per 10* Platelets
- ATP (platelets [5]; Day 7): 0.6±0.2 Nmoles Per 10* Platelets
- Morphology (Out Of 400) (platelets [6]; Day 2): 302±16
- Morphology (Out Of 400) (platelets [6]; Day 5): 290±20
- Morphology (Out Of 400) (platelets [6]; Day 7): 274±12
- (%) HSR (platelets [7]; Day 2): 52±5 %
- (%) HSR (platelets [7]; Day 5): 45±3%
- (%) HSR (platelets [7]; Day 7): 48±8%
- Bicarbonate (platelet concentrate [8]; Day 2): 6.3 ± 0.3 mM
- pCO2 (platelet concentrate [8]; Day 2): 29.2±3.8 mm Hg
- pO2 (platelet concentrate [8]; Day 2): 68.3±19.4 mm Hg
- Bicarbonate (platelet concentrate [8]; Day 5): 4.8 ± 0.5 mM
- pCO2 (platelet concentrate [8]; Day 5): 23.7±3.5 mm Hg
- pO2 (platelet concentrate [8]; Day 5): 84.8±22.5 mm Hg
- Bicarbonate (platelet concentrate [8]; Day 7): 4.2 ± 0.7 mM
- pCO2 (platelet concentrate [8]; Day 7): 20.7±2.4 mm Hg
- pO2 (platelet concentrate [8]; Day 7): 88.8±20.2 mm Hg
- (%) Microvesicle Formation (platelets [9]; Day 2): 0.9±0.2%
- (%) Microvesicle Formation (platelets [9]; Day 5): 0.8±0.2%
- (%) Microvesicle Formation (platelets [9]; Day 7): 1.7±1.7%
